Laboratory results reported in patent US20120178971A1, “Process for Isolation of a Novel Compound 5,8A-DI-1-Propyl 1-Octahydronapthalen-1-(2H) One,Trachyspermum AMI (Ajowan Caraway) Seeds” (ALIGARH MUSLIM UNIVERSITY, priority 2011, published 2012).
In brackets after ≈: the same amount, converted by molar mass.

How the values were obtained:
[1] = tested on: crude GTF of Streptococcus mutans; assay: Inhibition of water insoluble glucan synthesis; type: biochemical; details: 4.88 μl/ml
Description: FIG. 6: Inhibitory effects of the compound on insoluble glucan synthesis by crude GTF of Streptococcus mutans. The % insoluble glucan synthesis is the relative amount (%) ±SD (n=3)
The influence of different concentrations was assessed for the synthesis of insoluble glucan.

Streptococcus mutans [2] = assay: Inhibition of acid production (pH of culture medium); type: cell-based
Streptococcus mutans [3] = assay: as above; type: cell-based; remark: listed apart in the source
Description: […] At a concentration of 78.13 μg/ml, there is maximum reduction in acid production as is evident by an increase in pH from 4.7 (control) to 7.5.

Streptococcus mutans [4] = assay: Determination of MIC; type: cell-based; details: against Streptococcus mutans
[5] = tested on: Streptococcus mutans biofilm; assay: Confocal laser scanning microscopy of Streptococcus mutans biofilm; type: cell-based; details: 78.13 μ/ml, 24 h incubation
Description: FIG. 4: CLSM images of Streptococccus mutans biofilm formed in the presence or absence of the compound after 24 h incubation. The results are expressed as the means ±standard deviations of triplicate assays.
The biofilm of Streptococcus mutans was analyzed under the confocal laser scanning microscope to observe the changes in its morphology as shown in FIG. 4. […] The cells in the treated sample were more spread out and dispersed. Each panel of the image is a representative view of 141.145 μm by 141.145 μm along the xy axis. The xy analysis provides the biofilm surface coverage, while the z-section analyses establish the thickness of the biofilm. The control cells have biofilms that are clumped and less spread along the xy lane, show a thickness of 19.74±0.5 μm. […] The cells wee individually scattered over the surface rather than in any arrangement.

[6] = tested on: Streptococcus mutans biofilm; assay: Streptococcus mutans biofilm formation; type: cell-based
Description: FIG. 3: Inhibitory effect of the compound on the biofilm formed by Streptococcus mutans. The % biofilm formed is the relative (%) of biofilm formed at different concentrations of the compound as compared to that in the absence of any compound. Each value is an average of triplicate assays and each bar indicates ±SD (n=3)
The biofilm formation was assessed using increasing concentration of the compound. […] As observed in the adherence, the inhibitory effect was also found to be in a dose dependent manner.

Streptococcus mutans [7] = assay: Sucrose dependent cell adherence of Streptococcus mutans; type: cell-based
From the text: FIG. 2: Inhibitory effect of the compound on the extent of sucrose dependent cell adherence of Streptococcus mutans. The % cell adherence is the relative amount (%) of adherent cells at different concentrations of the compound as compared to the cells attached in the absence of any compound. Each value is an average of triplicate assays and each bar indicates ±SD (n=3).

Streptococcus mutans [8] = assay: Cell surface hydrophobicity of Streptococcus mutans; type: cell-based; details: 9.76 μg/ml, compared to untreated condition
From the text: FIG. 5: Inhibitory effect of compound on the hyrdophobicity of Streptococcus mutans where all the concentrations were taken in triplicates.
It was shown that the cell surface hydrophobocity of S. mutans is affected following treatment with the compound obtained from Trachyspermum ammi as shown in figure.

CCCC1CCCC2(CCC)C(=O)CCCC12 (centres unmarked) [the compound, 5,8a-di-1 propyl-octahydronapthalen-1-(2H)-one]
reduction in the synthesis of insoluble glucan [1]: 25% | pH ± SD (onset) (Streptococcus mutans [2]; 2.44 μg/ml): 7.28 ± 0.09 | pH ± SD (onset) (Streptococcus mutans [2]; 4.88 μg/ml): 7.24 ± 1.33 | pH ± SD (onset) (Streptococcus mutans [2]; 9.76 μg/ml): 7.33 ± 1.11 | pH ± SD (onset) (Streptococcus mutans [2]; 19.53 μg/ml): 7.38 ± 1.91 | pH ± SD (onset) (Streptococcus mutans [2]; 39.01 μg/ml): 7.43 ± 1.13 | pH ± SD (onset) (Streptococcus mutans [2]; 78.13 μg/ml): 7.43 ± 0.15 | pH ± SD (onset) (Streptococcus mutans [2]; 156.25 μg/ml): 7.38 ± 1.29 | pH ± SD (after 24 h) (Streptococcus mutans [3]; 2.44 μg/ml): 4.77 ± 1.69 | pH ± SD (after 24 h) (Streptococcus mutans [3]; 4.88 μg/ml): 4.84 ± 1.20 | pH ± SD (after 24 h) (Streptococcus mutans [3]; 9.76 μg/ml): 5.49 ± 1.05 | pH ± SD (after 24 h) (Streptococcus mutans [3]; 19.53 μg/ml): 5.62 ± 1.96 | pH ± SD (after 24 h) (Streptococcus mutans [3]; 39.01 μg/ml): 5.68 ± 6.78 | pH ± SD (after 24 h) (Streptococcus mutans [3]; 78.13 μg/ml): 6.48 ± 5.97 | pH ± SD (after 24 h) (Streptococcus mutans [3]; 156.25 μg/ml): 7.55 ± 2.65 | MIC (Streptococcus mutans [4]): 156 µg/mL (≈ 661 µM) | biofilm morphology ([5]; CLSM): complete absence of clumped cells | thickness of the biofilm ([5]; CLSM z-section): 12.8±0.7 µm | biofilm formation ([6]; 78.13 μg/ml): inhibited the biofilm formation | biofilm formation ([6]; 156.25 μg/ml (MIC)): completely inhibited the biofilm formation | reduction in adherence (Streptococcus mutans [7]; 9.77 μg/ml): 30% | least concentration to give at least 50% inhibition of adherence (Streptococcus mutans [7]; sucrose dependent adherence): 39.06 µg/mL | cell surface hydrophobicity (Streptococcus mutans [8]): drastically reduced the cell surface hydrophobicity to more than half
